Source: US20040054244A1, “Process of quadricyclane production” (Exciton, Inc., priority 2000, published 2004)

Assay: Solubility of sensitizer in norbornadiene
Settings: at room temperature

Compound | solubility in norbornadiene
CCN(CC)c1ccc(C(=O)c2ccc(N(CC)CC)cc2)cc1 [EMK, 4,4′-bis (diethylamino) benzophenone] | at least 3.86 % by weight
CN(C)c1ccc(C(=O)c2ccc(N(C)C)cc2)cc1 [MK, 4,4′-bis (dimethylamino)-benzophenone] | ≤ 0.32 % by weight
